Counter-ions that a name gives are not always drawn. Like-named read-outs stand apart in the source and are kept apart here.
Experiments:
human NTCP [1] = target: T1, human NTCP (Homo sapiens, UniProt Q14973); assay: Screening fluorescent competitive Myrcludex B-FITC binding assay (96-well, 10 µM drug)
T1 sequence (Q14973 1-349): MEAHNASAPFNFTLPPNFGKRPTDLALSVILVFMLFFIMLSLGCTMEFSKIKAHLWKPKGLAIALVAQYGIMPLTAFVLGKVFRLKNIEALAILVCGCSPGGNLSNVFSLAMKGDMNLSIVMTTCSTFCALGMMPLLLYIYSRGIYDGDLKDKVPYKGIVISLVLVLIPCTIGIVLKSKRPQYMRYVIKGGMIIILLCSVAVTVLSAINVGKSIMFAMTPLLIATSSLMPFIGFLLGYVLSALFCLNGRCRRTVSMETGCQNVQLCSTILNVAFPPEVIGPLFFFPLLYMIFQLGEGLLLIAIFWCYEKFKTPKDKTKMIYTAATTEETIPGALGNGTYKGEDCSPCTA

human NTCP [2] = target: T1, human NTCP; assay: Screening taurocholate uptake assay (96-well, [14C]taurocholate, 10 µM drug)
[3] = Prestwick library screen, Myrcludex B-FITC binding, 10 µM drug
[4] = Prestwick library screen, taurocholate uptake, 10 µM drug
[5] = ranking score beside the functional and binding assay B-scores of the screen
[6] = Prestwick library screen, 10 µM drug, B-score of Myrcludex B-FITC binding
[7] = Prestwick library screen, 10 µM drug, B-score of taurocholate uptake
[8] = combined ranking from functional and binding assay B-scores
[9] = screen, 10 µM drug, Myrcludex B-FITC binding
[10] = combined ranking from functional and binding screening assays
[11] = screen, 10 µM drug, taurocholate uptake

NS(=O)(=O)c1cc2c(cc1Cl)N=C(CSCc1ccccc1)NS2(=O)=O [Benzthiazide]
B-score binding assay (human NTCP [1]; [3]): 0.39
B-score functional assay (human NTCP [2]; [4]): -0.047
Ranking score (human NTCP [2]; [5]): 714.84

O=C(O)/C=C\C(=O)O.O=C(O)/C=C\C(=O)O.c1ccc2nc(N3CCNCC3)ccc2c1 [Quipazine dimaleate salt]
B-score binding assay (human NTCP [1]; [6]): 1.213
B-score functional assay (human NTCP [2]; [7]): 0.305
Ranking score (human NTCP [2]; [8]): 954.17

CC(=O)O[C@H]1C(=O)[C@@]2(C)[C@H]([C@H](OC(=O)c3ccccc3)[C@]3(O)C[C@H](OC(=O)[C@H](O)[C@@H](NC(=O)c4ccccc4)c4ccccc4)C(C)=C1C3(C)C)[C@]1(OC(C)=O)CO[C@@H]1C[C@@H]2O [Paclitaxel]
B-score binding assay (human NTCP [1]; [3]): 0.829
B-score functional assay (human NTCP [2]; [4]): -0.069
Ranking score (human NTCP [2]; [5]): 752.811

NCC[C@H](O)C(=O)N[C@@H]1C[C@H](N)[C@@H](O[C@H]2O[C@H](CN)[C@@H](O)[C@H](O)[C@H]2O)[C@H](O)[C@H]1O[C@H]1O[C@H](CO)[C@@H](O)[C@H](N)[C@H]1O [Amikacin hydrate]
B-score binding assay (human NTCP [1]; [6]): 0.912
B-score functional assay (human NTCP [2]; [7]): 1.395
Ranking score (human NTCP [2]; [8]): 1074.44

Cc1cn[nH]c1 [Fomepizole]
B-score binding assay (human NTCP [1]; [3]): -0.028
B-score functional assay (human NTCP [2]; [4]): 0.928
Ranking score (human NTCP [2]; [5]): 795.707

CN(C)CCC(c1ccccc1)c1ccccn1 (stereo not drawn) [Pheniramine maleate]
B-score binding assay (human NTCP [1]; [9]): -0.017
Ranking score (human NTCP [2]; [10]): 447.397
B-score functional assay (human NTCP [2]; [11]): -0.685

O.O=P(O)(O)C(O)(Cc1cccnc1)P(=O)(O)O [Risedronic acid monohydrate]
B-score binding assay (human NTCP [1]; [6]): 0.727
B-score functional assay (human NTCP [2]; [7]): 1.315
Ranking score (human NTCP [2]; [8]): 1045.06

Cyanocobalamin
B-score binding assay (human NTCP [1]; [3]): 0.087
B-score functional assay (human NTCP [2]; [4]): 0.223
Ranking score (human NTCP [2]; [5]): 774.968

C=CCN1CC[C@]23c4c5ccc(O)c4O[C@H]2C(=O)CC[C@@]3(O)[C@H]1C5 [Naloxone hydrochloride]
B-score binding assay (human NTCP [1]): 0
Ranking score (human NTCP [2]; combined ranking of functional and binding screening assays): 578.749
B-score functional assay (human NTCP [2]; screening taurocholate uptake, 10 µM drug): -0.111

CC(=O)S[C@@H]1CC2=CC(=O)CC[C@]2(C)[C@H]2CC[C@@]3(C)[C@@H](CC[C@@]34CCC(=O)O4)[C@H]12 [Spironolactone]
B-score binding assay (human NTCP [1]; [3]): 0.972
B-score functional assay (human NTCP [2]; [4]): -0.089
Ranking score (human NTCP [2]; [5]): 751.977

CN1C2CCCC1CC(NC(=O)c1nn(C)c3ccccc13)C2 (stereo not drawn) [Granisetron]
B-score binding assay (human NTCP [1]; [3]): -0.067
B-score functional assay (human NTCP [2]; [4]): 0.526
Ranking score (human NTCP [2]; [5]): 726.756

CCC1(C)CC(=O)NC1=O (stereo not drawn) [Ethosuximide]
B-score binding assay (human NTCP [1]; [6]): 0.697
B-score functional assay (human NTCP [2]; [7]): 1.817
Ranking score (human NTCP [2]; [8]): 1070.41

CCCNC(=O)NS(=O)(=O)c1ccc(Cl)cc1 [Chlorpropamide]
B-score binding assay (human NTCP [1]; [3]): -0.165
B-score functional assay (human NTCP [2]; [4]): 1.589
Ranking score (human NTCP [2]; [5]): 766.984

CCCC(CCC)C(=O)O [Valproic acid]
B-score binding assay (human NTCP [1]; [6]): 1.515
B-score functional assay (human NTCP [2]; [7]): 0.92
Ranking score (human NTCP [2]; [8]): 1093.47

CN1CCN2c3ccccc3Cc3ccccc3C2C1.Cl (stereo not drawn) [Mianserine hydrochloride]
B-score binding assay (human NTCP [1]; [3]): 0.761
B-score functional assay (human NTCP [2]; [4]): 0.041
Ranking score (human NTCP [2]; [5]): 825.955

COc1cc(OC)c(C(=O)CCCN2CCCC2)c(OC)c1.Cl [Buflomedil hydrochloride]
B-score binding assay (human NTCP [1]; [3]): -0.086
B-score functional assay (human NTCP [2]; [4]): 2.687
Ranking score (human NTCP [2]; [5]): 823.499

Cl.NC1CCN(c2nc3c(cc2F)c(=O)c(C(=O)O)cn3-c2ccc(F)cc2F)C1 (stereo not drawn) [Tosufloxacin hydrochloride]
B-score binding assay (human NTCP [1]; [3]): 0.338
B-score functional assay (human NTCP [2]; [4]): 0.009
Ranking score (human NTCP [2]; [5]): 746.768

O=C(CCCN1CCC(O)(c2ccc(Br)cc2)CC1)c1ccc(F)cc1 [Bromperidol]
B-score binding assay (human NTCP [1]; [3]): -0.002
B-score functional assay (human NTCP [2]; [4]): 0.496
Ranking score (human NTCP [2]; [5]): 757.533

Cc1ccsc1/C=C/C1=NCCCN1C [Morantel tartrate]
B-score binding assay (human NTCP [1]; [9]): -0.484
Ranking score (human NTCP [2]; [10]): 381
B-score functional assay (human NTCP [2]; [11]): -0.483

CCCNC(C)(C)COC(=O)c1ccccc1 [Meprylcaine hydrochloride]
B-score binding assay (human NTCP [1]; [9]): -1.608
Ranking score (human NTCP [2]; [10]): 382.481
B-score functional assay (human NTCP [2]; [11]): 0.763

CN[C@@H]1C[C@@H](c2ccc(Cl)c(Cl)c2)c2ccccc21 [Indatraline hydrochloride]
B-score binding assay (human NTCP [1]; [3]): 0.336
B-score functional assay (human NTCP [2]; [4]): 0.152
Ranking score (human NTCP [2]; [5]): 814.16

COC(=O)C1=C(C)NC(C)=C(C(=O)O[C@@H]2CCCN(Cc3ccccc3)C2)[C@@H]1c1cccc([N+](=O)[O-])c1.Cl (racemic) [Benidipine hydrochloride]
B-score binding assay (human NTCP [1]; [9]): -0.032
Ranking score (human NTCP [2]; [10]): 426.727
B-score functional assay (human NTCP [2]; [11]): -0.759

CN1CCC2(C)c3cc(O)ccc3N(C)C12.O=C(O)/C=C/C(=O)O (single isomer, unassigned; (-)) [(-)-Eseroline fumarate salt]
B-score binding assay (human NTCP [1]; [3]): 0.233
B-score functional assay (human NTCP [2]; [4]): 0.19
Ranking score (human NTCP [2]; [5]): 803.481

CC(=O)N(CC(O)CO)c1c(I)c(C(=O)NCC(O)CO)c(I)c(C(=O)NCC(O)CO)c1I (stereo not drawn) [Iohexol]
B-score binding assay (human NTCP [1]; [3]): 0.046
B-score functional assay (human NTCP [2]; [4]): 0.198
Ranking score (human NTCP [2]; [5]): 748.519

CNS(=O)(=O)Cc1ccc2[nH]cc(CCN(C)C)c2c1 [Sumatriptan succinate]
B-score binding assay (human NTCP [1]): 0.075
B-score functional assay (human NTCP [2]): 0.496
Ranking score (human NTCP [2]): 810.351

CNCCCC12CCC(c3ccccc31)c1ccccc12 [Maprotiline hydrochloride]
B-score binding assay (human NTCP [1]; [9]): -0.835
Ranking score (human NTCP [2]; [10]): 403.36
B-score functional assay (human NTCP [2]; [11]): -0.051

Nc1ccc(S(N)(=O)=O)cc1 [Sulfanilamide]
B-score binding assay (human NTCP [1]; [9]): -1.742
Ranking score (human NTCP [2]; [10]): 381.13
B-score functional assay (human NTCP [2]; [11]): 1.042

C[C@H](CCC(=O)O)[C@H]1CC[C@H]2[C@@H]3C(=O)C[C@@H]4CC(=O)CC[C@]4(C)[C@H]3CC(=O)[C@]12C [Dehydrocholic acid]
B-score binding assay (human NTCP [1]; [9]): -0.083
Ranking score (human NTCP [2]; [10]): 309.304
B-score functional assay (human NTCP [2]; [11]): -1.555

CCOC(=O)[C@H](CCc1ccccc1)N[C@H]1CCc2ccccc2N(CC(=O)O)C1=O [Benazepril HCl]
B-score binding assay (human NTCP [1]; [6]): 0.109
B-score functional assay (human NTCP [2]; [7]): 1.384
Ranking score (human NTCP [2]; [8]): 918.755

N[C@@H]1CON=C1O [D-cycloserine]
B-score binding assay (human NTCP [1]; [3]): 0.464
B-score functional assay (human NTCP [2]; [4]): -0.174
Ranking score (human NTCP [2]; [5]): 667.017

Clc1ccc2nsnc2c1NC1=NCCN1 [Tizanidine HCl]
B-score binding assay (human NTCP [1]; [9]): -1.169
Ranking score (human NTCP [2]; [10]): 334.885
B-score functional assay (human NTCP [2]; [11]): -0.107

COc1ccc(OC)c(C(O)CNC(=O)CN)c1 (stereo not drawn) [Midodrine hydrochloride]
B-score binding assay (human NTCP [1]; [3]): 2.033
B-score functional assay (human NTCP [2]; [4]): -0.28
Ranking score (human NTCP [2]; [5]): 735.356

O=P(O)(O)C(O)(Cn1ccnc1)P(=O)(O)O [Zoledronic acid hydrate]
B-score binding assay (human NTCP [1]; [9]): -0.262
Ranking score (human NTCP [2]; [10]): 422.203
B-score functional assay (human NTCP [2]; [11]): -0.476

Nc1ncn([C@@H]2O[C@H](CO)[C@@H](O)[C@H]2O)c(=O)n1 [Azacytidine-5]
B-score binding assay (human NTCP [1]; [6]): 1.257
B-score functional assay (human NTCP [2]; [7]): 0.011
Ranking score (human NTCP [2]; [8]): 847.665

CNNCc1ccc(C(=O)NC(C)C)cc1 [Procarbazine hydrochloride]
B-score binding assay (human NTCP [1]; [9]): -0.424
Ranking score (human NTCP [2]; [10]): 345.534
B-score functional assay (human NTCP [2]; [11]): -0.792

Reference: paper PMC5681660, “Reduced hepatitis B and D viral entry using clinically applied drugs as novel inhibitors of the bile acid transporter NTCP” (Scientific Reports, 2017)
